# According to patent US20080027072A1, “Potentiation of MC4 receptor activity” (AMPLA Pharmaceuticals, Inc., priority 2006, published 2008):
# Columns and labels:
# [1] = target: T1, MC4 receptor (Homo sapiens, UniProt P32245); experiment: ELISA-based cAMP assay in HEK293 cells stably expressing human MC4 receptors; assay type: cell-based; design: expressed in transfected cells; host or cells: HEK293 stably expressing human MC4 receptor
# Experimental: ELISA-based cAMP assay was used to determine ligand-induced cAMP accumulation in HEK293 cells stably expressing human MC4 receptors in 96-well plate format. Compounds and cAMP standards were diluted in DMEM (without FBS and phenol red) containing 1 mM IBMX. Cells were plated in T-75 flasks and cultured for 24 h before use. Cells were removed from tissue culture flasks using enzyme-free cell dissociation buffer, washed and resuspended in DMEM (without FBS and phenol red) containing 1 mM IBMX at a density of 1×10^6 cells/ml. […] After incubation for 1 h, 50 μl of lysis buffer (0.5% NP-40 in TBS) was added, and incubated for 30 min. After adding rabbit anti-cAMP antibody (Sigma) diluted in TBST (TBS containing 0.05% Tween 20) (25 μl/well) and incubating for 30 min, 25 μl of cAMP-HRP conjugate dilution (in TBST) was added, and incubated for another 1 h. The plate was washed 6 times with TBST. To each well 200 μl of substrate (SuperSignal ELISA Pico Chemiluminesent substrate, Pierce, #37070) was added. The chemiluminescence activity was measured by a luminescence plate reader (NOVAstar, BMG Labtech). cAMP amount for each sample was estimated from cAMP standard curve.
# [2] = test system: diet-induced obese male wild-type C57BL/6J mice; experiment: Food intake and body weight, diet-induced obese wild-type mice; assay type: in vivo; conditions: 40 mg/kg oral, day 2, wild-type
# Experimental: (§1) Mice were dosed at 40 mg/kg for two days with vehicle or test drug. Body weight and food and water intake were recorded daily.
# (§2) The test compound was ground while being diluted in 1% methylcellulose, and the final solution was sonicated to give a uniform suspension suitable for dosing. Drug solutions were made up fresh each day 1-2 h before dosing and were administered using a dose volume in the range of 1-3 ml/kg.
# [3] = target: T1, MC4 receptor; experiment: Binding experiments with the MC4 receptor inverse agonist AgRP (FIG. 6); design: expressed in transfected cells
# [4] = test system: diet-induced obese male MC4 knockout C57BL/6J mice; experiment: Food intake and body weight, diet-induced obese MC4 knockout mice; assay type: in vivo; conditions: 40 mg/kg oral
# Experimental: as §1, §2
# [5] = target: T1, MC4 receptor; experiment: Competition ligand binding assay with [125I]-NDP-α-MSH, HEK293 cell membranes; design: expressed in transfected cells; host or cells: HEK293 stably expressing human MC4 receptor
# Experimental: The binding was carried out at room temperature for another 2 h. […] Binding was terminated by addition of cold binding buffer and filtration on Whatman GF/B glass-fiber filters using a sampling manifold. The filters were washed 6 times with cold binding buffer and air-dried overnight. The radioactivity was quantified on a TopCounter after adding scintillation fluid. […] Data were analyzed by non-linear regression using program GraphPAD Prism (FIG. 5).
# [6] = target: T2, human Melonocortin-4 (MC4) receptor (Homo sapiens, UniProt P32245); experiment: α-MSH dose-response, intracellular Ca2+ (Indo-1) flow cytometry (DSIS) in clonal MC4 cells, +/- compound; assay type: cell-based; conditions: compound at a concentration of 1-10 μM
# T2 construct: expressed in transfected cells; host or cells: HEK293 (ATCC), G418-selected, FACS-sorted clonal cMC4 line
# T2 sequence (P32245 whole entry): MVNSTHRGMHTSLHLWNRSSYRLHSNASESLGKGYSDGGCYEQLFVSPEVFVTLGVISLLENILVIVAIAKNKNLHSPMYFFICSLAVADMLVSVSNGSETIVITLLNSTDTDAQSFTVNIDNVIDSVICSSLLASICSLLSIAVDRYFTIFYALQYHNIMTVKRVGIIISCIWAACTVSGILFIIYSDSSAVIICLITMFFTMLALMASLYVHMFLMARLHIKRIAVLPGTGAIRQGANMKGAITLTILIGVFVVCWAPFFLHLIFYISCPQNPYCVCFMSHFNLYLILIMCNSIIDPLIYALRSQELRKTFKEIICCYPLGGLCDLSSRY
# Experimental: The cMC4 and Control Cells were plated 24-48 hours in advance, and were harvested with trypsin at ˜80% confluency. Cells were then centrifuged and resuspended two times in Hybridoma Media, the final time at a concentration of 1×10^6 cells/mL. Both cell lines were then loaded with 2 mM of Indo-1 plus 3 μg/mL Biotin-X DHPE and then were incubated for 1 hour on a rotator at room temperature. Cells were washed two times and resuspended at a concentration of 1×10^6 cells/mL in Hybridoma Media. The cMC4 cell line then got 2 μg/ml of Alexa 488-streptavidin (Invitrogen/Molecular Probes). Cells were incubated for an additional 30 minutes on a rocker at room temperature. […]
# The probe-loaded cMC4 and Control cell mixture was placed in the Cell Suspension System on the DSIS where they were continuously rocked to keep them in a suspended state. […] The DSIS software, NVS Sampler, recorded a timing file and the CyAn software, Summit, recorded a data file. These two files were then compiled and analyzed by NVS Analyzer (see below) to determine the percent of cells that responded to each concentration. The data were transferred to GraphPAD Prism (GraphPad Software, San Diego, Calif.) for a non-linear regression curve fit that determined the EC50. […]
# When the screen was complete, the data files and the timing files were analyzed using NVS Analyzer. […]
# [7] = target: T1, MC4 receptor; experiment: Single-well kinetics of the αMSH response (FIGS. 9A-9E); assay type: cell-based; design: expressed in transfected cells
# Experimental: FIGS. 9A-9E show response kinetics from single-well assays. The response was initiated by αMSH with or without Compound 1. […] Whereas at 1 μM and 300 nM, αMSH onset and peak were increased and sustained. The onset and peak response increased with 3 μM and 10 μM concentrations of Compound 1 at all concentrations of αMSH.
# [8] = test system: diet-induced obese male C57BL/6J mice; experiment: 28-day body weight and food intake study in diet-induced obese mice; assay type: in vivo; conditions: day 29
# Experimental: Sibutramine, which is currently used clinically, and rimonabant, which has recently received regulatory approval for the management of obesity were used as reference compounds.
# C57BL/6J mice (7-8 weeks of age) were ordered from Charles River, Margate, Kent. Mice were group housed in polypropylene cages with free access to a high fat diet (D12451 45% of Kcal derived from fat; Research Diets, New Jersey, USA) and tap water at all times. Animals were maintained at 21±4° C. and 55±20% humidity on a normal phase 12 h light-dark cycle (lights on 04:30 h)
# Animals were exposed to the high fat diet for 16 weeks. During this time body weight was recorded weekly. At the end of 14 weeks animals were singly housed in polypropylene cages for a further two week period (weeks 14-16) and placed on reverse phase lighting (lights off for 8 h from 9.30-17.30 h) during which time the room was illuminated by red light. Animals were dosed with vehicle orally throughout the baseline period. Body weight and food and water intake was recorded daily. Towards the end of the baseline period animals were allocated to groups. Upon completion of the baseline period, mice were dosed for 28 days with vehicle or test drug.
# Body weight and food and water intake were recorded daily. Following drug administration the animals were examined and any overt behavior was recorded. For all dosing, the morning session was timed such that approximately half the mice were dosed at the time of lights out (09:30).
# The test compounds were dissolved in 1% methylcellulose. Drug solutions were made up fresh each day 1-2 h before dosing and were administered using a dose volume in the range of 1-3 ml/kg. Drug doses were expressed as free base.
# Resulting body weights, food intake and water intake were expressed as mean values±SEM, and the SEMs are calculated from residuals of the statistical model. Body weight data was analysed by ANCOVA with Day 1 as covariate followed by appropriate comparisons (two-tailed) to determine significant differences from the control group. […] Daily food and water intake data was analysed by ANOVA.
# T1 sequence (P32245 whole entry): as above
smiles,measurement,setting,value
OC1(c2ccc(Cl)cc2)CCN(Cc2c[nH]c3ccccc23)CC1 [Compound 1],effect on AgRP activity,"[1]; FIG. 8, cAMP",attenuates
same,effect on α-MSH activity,"[1]; FIG. 8, cAMP",potentiates
same,body weight as compared to vehicle,[2],statistically significant decrease
same,reduction in food intake as compared to vehicle,[2],~40%
same,dissociation of AgRP from the MC4 receptor,[3],increases the dissociation
same,body weight as compared to vehicle,[4],did not show a similar decrease
same,reduction in food intake as compared to vehicle,[4],did not show a similar reduction
same,EC50,[5],3.96 µM
same,shift in the EC50 of α-MSH,[6],left shift
same,onset and peak response to αMSH,"[7]; 3 μM and 10 μM Compound 1, all concentrations of αMSH",increased
same,activity induced by the compound itself,"[7]; 10 μM Compound 1, 100 nM and 30 nM αMSH (FIG. 9E)",low level activity
same,maximum peak response to αMSH,[7]; low concentrations of Compound 1,did not appreciably increase
Cc1c(C(=O)NN2CCCCC2)nn(-c2ccc(Cl)cc2Cl)c1-c1ccc(Cl)cc1 [Rimonabant],reduction of body weight,[8]; 10 mg/kg oral,15%
same,"weight reduction as compared to vehicle, significance",[8]; 10 mg/kg oral,statistically significant weight reduction
Clc1ccc(N2CCN(Cc3c[nH]c4ncccc34)CC2)cc1 [Compound 2],effect on the response of NDP-α-MSH,[1]; cAMP accumulation,potentiate
same,EC50,[5],252 µM
same,shift in the EC50 of α-MSH,[6],left shift
CC(C)CC(N(C)C)C1(c2ccc(Cl)cc2)CCC1 (stereo not drawn) [Sibutramine],reduction of body weight,[8]; 20 mg/kg oral,2%
